Test results as given in ChEMBL document CHEMBL1909046, “DrugMatrix in vitro pharmacology data”.

Columns and labels:
[1] = target: 5-hydroxytryptamine receptor 1B (Rattus norvegicus, UniProt P28564); format: cell membranes, Wistar, Cerebral cortex, Membrane; also: in other assays of this panel Not Active means under 50% inhibition at 10 µM
[2] = target: T1, Alpha-1A adrenergic receptor (Rattus norvegicus, UniProt P43140); test: DRUGMATRIX: Alpha-1A adrenergic receptor radioligand binding (ligand: prazosin); format: cell membranes, Wistar, Submaxillary gland, Membrane; settings: Not Active = under 50% inhibition at 10 µM
T1 sequence (P43140 whole entry): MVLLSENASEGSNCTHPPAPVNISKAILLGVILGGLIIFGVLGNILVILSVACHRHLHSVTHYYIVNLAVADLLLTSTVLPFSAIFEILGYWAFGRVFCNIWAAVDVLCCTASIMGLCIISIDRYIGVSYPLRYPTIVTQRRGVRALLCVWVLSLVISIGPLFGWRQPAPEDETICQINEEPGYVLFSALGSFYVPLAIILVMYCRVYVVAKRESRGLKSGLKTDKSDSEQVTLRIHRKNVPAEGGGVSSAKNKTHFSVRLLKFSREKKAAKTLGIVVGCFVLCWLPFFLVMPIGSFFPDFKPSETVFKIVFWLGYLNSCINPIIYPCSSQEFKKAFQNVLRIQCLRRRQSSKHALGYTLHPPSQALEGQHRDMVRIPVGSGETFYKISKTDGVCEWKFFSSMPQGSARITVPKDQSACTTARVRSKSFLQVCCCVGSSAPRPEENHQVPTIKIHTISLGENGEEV

[3] = target: T2, Substance-K receptor (Homo sapiens, UniProt P21452); format: cell membranes, CHO, Membrane; settings: cho; also: in other assays of this panel Not Active means under 50% inhibition at 10 µM
T2 sequence (P21452 whole entry): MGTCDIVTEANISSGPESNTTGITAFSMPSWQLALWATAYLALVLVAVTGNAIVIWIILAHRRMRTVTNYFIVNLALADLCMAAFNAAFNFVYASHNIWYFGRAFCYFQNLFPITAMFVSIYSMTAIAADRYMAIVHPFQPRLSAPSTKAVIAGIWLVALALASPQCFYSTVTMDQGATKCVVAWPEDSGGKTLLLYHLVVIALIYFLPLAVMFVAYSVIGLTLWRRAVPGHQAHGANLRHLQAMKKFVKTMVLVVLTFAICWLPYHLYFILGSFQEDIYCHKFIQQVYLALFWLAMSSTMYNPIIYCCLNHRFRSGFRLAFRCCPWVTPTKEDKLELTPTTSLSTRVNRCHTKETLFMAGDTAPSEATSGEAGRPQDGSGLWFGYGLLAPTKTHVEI

[4] = target: T3, Adenosine receptor A3 (Homo sapiens, UniProt P0DMS8); format: cell membranes, CHO-K1, Membrane; settings: for Ki: read-out: Ki;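 as to all read-outs here: radioligand binding assay with AB-MECA serving as the labeled ligand; in other assays of this panel Not Active means under 50% inhibition at 10 µM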
T3 sequence (P0DMS8 whole entry): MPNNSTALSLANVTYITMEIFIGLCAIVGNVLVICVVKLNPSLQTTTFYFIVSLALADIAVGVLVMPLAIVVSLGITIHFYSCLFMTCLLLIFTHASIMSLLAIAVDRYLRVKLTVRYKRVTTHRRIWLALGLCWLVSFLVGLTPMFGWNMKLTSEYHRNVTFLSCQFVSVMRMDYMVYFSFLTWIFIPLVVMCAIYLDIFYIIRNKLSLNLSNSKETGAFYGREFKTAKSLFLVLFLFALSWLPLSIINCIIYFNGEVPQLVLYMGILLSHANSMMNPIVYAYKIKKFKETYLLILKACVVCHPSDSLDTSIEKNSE

[5] = DRUGMATRIX: Phosphodiesterase PDE3 enzyme inhibition (substrate: [3H]cAMP + cAMP); format: tissue-based, Homo sapiens; settings: platelet; Not Active = under 50% inhibition at 10 µM
[6] = target: Aldo-keto reductase family 1 member B1 (Rattus norvegicus, UniProt P07943); test: biochemical; format: tissue-based, Lens of camera-type eye;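 also: inhibition of aldose reductase enzyme activity, measured with DL-glyceraldehyde as the substrate; in other assays of this panel Not Active means under 50% inhibition at 10 µM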

5-hydroxytryptamine receptor 1B, sequence (P28564 whole entry): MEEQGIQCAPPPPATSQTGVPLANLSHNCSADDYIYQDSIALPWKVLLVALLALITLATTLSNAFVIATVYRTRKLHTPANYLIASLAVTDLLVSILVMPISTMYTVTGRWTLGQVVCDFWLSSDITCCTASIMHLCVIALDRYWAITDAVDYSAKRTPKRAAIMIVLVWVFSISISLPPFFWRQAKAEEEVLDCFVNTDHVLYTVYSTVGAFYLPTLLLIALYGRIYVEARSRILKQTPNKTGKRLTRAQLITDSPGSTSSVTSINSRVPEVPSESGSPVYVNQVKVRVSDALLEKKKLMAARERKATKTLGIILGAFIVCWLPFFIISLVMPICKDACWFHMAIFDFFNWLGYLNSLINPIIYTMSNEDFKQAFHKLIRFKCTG

Structure (SMILES) | IC50 [1] | IC50 [2] | IC50 [3] | IC50 ([4]; cho-k1) | IC50 [5] | Ki [5] | IC50 [6] | IC50 ([6]; read-out: IC50) [µM] | IC50 ([4]; read-out: IC50) [µM] | Ki [4] [µM] | IC50 ([1]; read-out: IC50) [µM] | Ki ([1]; read-out: Ki) [µM]
C[C@H]1C[C@H]2[C@@H]3CCC4=CC(=O)C=C[C@]4(C)[C@@]3(Cl)[C@@H](O)C[C@]2(C)[C@@]1(O)C(=O)CO [BECLOMETHASONE] | Not Active | Not Active | Not Active | Not Active | Not Active | Not Active | Not Active |  |  |  |  | 
Cc1cc(=O)n(-c2ccccc2)n1C [ANTIPYRINE] | Not Active | Not Active | Not Active | Not Active | Not Active | Not Active | Not Active |  |  |  |  | 
COc1cccc2c1C(=O)c1c(O)c3c(c(O)c1C2=O)C[C@@](O)(C(=O)CO)C[C@@H]3O[C@H]1C[C@H](N)[C@@H](O)[C@H](C)O1 [EPIRUBICIN] | Not Active | Not Active | Not Active | Not Active | Not Active | Not Active | Not Active |  |  |  |  | 
C[C@](O)(CS(=O)(=O)c1ccc(F)cc1)C(=O)Nc1ccc(C#N)c(C(F)(F)F)c1 [(R)-BICALUTAMIDE] | Not Active | Not Active | Not Active | Not Active | Not Active | Not Active | Not Active |  |  |  |  | 
COc1ccc2c(c1)[C@]13CCCC[C@@H]1[C@H](C2)N(C)CC3 [DEXTROMETHORPHAN] | Not Active | Not Active | Not Active | Not Active | Not Active | Not Active | Not Active |  |  |  |  | 
COP(=O)(OC)OC=C(Cl)Cl [DICHLORVOS] | Not Active | Not Active | Not Active | Not Active | Not Active | Not Active | Not Active |  |  |  |  | 
CCN[C@@H]1C[C@H](N)[C@@H](O[C@H]2OC(CN)=CC[C@H]2N)[C@H](O)[C@H]1O[C@H]1OC[C@](C)(O)[C@H](NC)[C@H]1O [NETILMICIN] | Not Active | Not Active | Not Active | Not Active | Not Active | Not Active | Not Active |  |  |  |  | 
CN(C)/N=N/c1[nH]cnc1C(N)=O [DACARBAZINE] | Not Active | Not Active | Not Active | Not Active | Not Active | Not Active | Not Active |  |  |  |  | 
O=NN(CCCl)C(=O)NCCCl [CARMUSTINE] | Not Active | Not Active | Not Active | Not Active | Not Active | Not Active | Not Active |  |  |  |  | 
Oc1ccc(OCc2ccccc2)cc1 [MONOBENZONE] | Not Active | Not Active | Not Active | Not Active | Not Active | Not Active | Not Active |  |  |  |  | 
Nc1ccn([C@@H]2CS[C@H](CO)O2)c(=O)n1 [LAMIVUDINE] | Not Active | Not Active | Not Active | Not Active | Not Active | Not Active | Not Active |  |  |  |  | 
COc1ccc2c(c1)c(CC(=O)O)c(C)n2C(=O)c1ccc(Cl)cc1 [INDOMETHACIN] | Not Active | Not Active | Not Active | Not Active | Not Active | Not Active |  | 3.63 |  |  |  | 
CC(C)[C@H]1CC[C@H](C(=O)N[C@H](Cc2ccccc2)C(=O)O)CC1 [NATEGLINIDE] | Not Active | Not Active | Not Active | Not Active | Not Active | Not Active | Not Active |  |  |  |  | 
CCCC(=O)Nc1ccc(OCC(O)CNC(C)C)c(C(C)=O)c1 (stereo unspecified) [ACEBUTOLOL] | Not Active | Not Active | Not Active | Not Active | Not Active | Not Active | Not Active |  |  |  |  | 
C[C@]12CC[C@@H]3c4ccc(OC(=O)c5ccccc5)cc4CC[C@H]3[C@@H]1CC[C@@H]2O [ESTRADIOL BENZOATE] | Not Active | Not Active | Not Active |  | Not Active | Not Active | Not Active |  | 21.8 | 12.3 |  | 
CC1(C)O[C@@H]2C[C@H]3[C@@H]4C[C@H](F)C5=CC(=O)C=C[C@]5(C)[C@H]4[C@@H](O)C[C@]3(C)[C@]2(C(=O)CO)O1 [FLUNISOLIDE] | Not Active | Not Active | Not Active | Not Active | Not Active | Not Active | Not Active |  |  |  |  | 
CC1=C(C(=O)O)N2C(=O)[C@@H](NC(=O)[C@H](N)c3ccccc3)[C@H]2SC1 [CEPHALEXIN ANHYDROUS] | Not Active | Not Active | Not Active | Not Active | Not Active | Not Active | Not Active |  |  |  |  | 
COC(=O)C1=C(C)NC(C)=C(C(=O)OCC(C)C)C1c1ccccc1[N+](=O)[O-] (stereo unspecified) [NISOLDIPINE] | Not Active | Not Active | Not Active |  | Not Active | Not Active | Not Active |  | 7.12 | 4.02 |  | 
CC(=O)Nc1ccc(O)cc1 [ACETAMINOPHEN] | Not Active | Not Active | Not Active | Not Active | Not Active | Not Active | Not Active |  |  |  |  | 
CCc1c2c(nc3ccc(OC(=O)N4CCC(N5CCCCC5)CC4)cc13)-c1cc3c(c(=O)n1C2)COC(=O)[C@]3(O)CC [IRINOTECAN] | Not Active | Not Active | Not Active | Not Active | Not Active | Not Active | Not Active |  |  |  |  | 
C[C@]12CC[C@@H]3c4ccc(O)cc4CC[C@H]3[C@@H]1CC[C@@H]2O [ESTRADIOL] | Not Active | Not Active | Not Active | Not Active | Not Active | Not Active | Not Active |  |  |  |  | 
C#C[C@]1(OC(C)=O)CC[C@H]2[C@@H]3CCC4=CC(=O)CC[C@@H]4[C@H]3CC[C@@]21C [NORETHINDRONE ACETATE] | Not Active | Not Active | Not Active | Not Active | Not Active | Not Active | Not Active |  |  |  |  | 
N=C(Nc1ccccc1)Nc1ccccc1 | Not Active | Not Active | Not Active | Not Active | Not Active | Not Active | Not Active |  |  |  |  | 
ClC(Cl)Cl [CHLOROFORM] | Not Active | Not Active | Not Active | Not Active | Not Active | Not Active | Not Active |  |  |  |  | 
N=C(N)NC(=O)c1nc(Cl)c(N)nc1N [AMILORIDE] | Not Active | Not Active | Not Active | Not Active | Not Active | Not Active | Not Active |  |  |  |  | 
CCN1CC(CCN2CCOCC2)C(c2ccccc2)(c2ccccc2)C1=O (stereo unspecified) [DOXAPRAM] | Not Active | Not Active | Not Active | Not Active | Not Active | Not Active | Not Active |  |  |  |  | 
Cc1ccc(S(=O)(=O)NC(=O)NN2CC3CCCC3C2)cc1 (stereo unspecified) [GLICLAZIDE] | Not Active | Not Active | Not Active | Not Active | Not Active | Not Active | Not Active |  |  |  |  | 
COc1cccc2c1C(=O)c1c(O)c3c(c(O)c1C2=O)C[C@@](O)(C(=O)CO)C[C@@H]3O[C@H]1C[C@H](N)[C@H](O)[C@H](C)O1 [DOXORUBICIN] |  | Not Active | Not Active | Not Active | Not Active | Not Active | Not Active |  |  |  | 34.5 | 15.7
Cn1c(=O)c2c(ncn2CC2OCCO2)n(C)c1=O [DOXOFYLLINE] | Not Active | Not Active | Not Active | Not Active | Not Active | Not Active | Not Active |  |  |  |  | 
